# Laboratory results published in patent publication EP1170012A1, “CEREBROVASCULAR REGENERATION/RECONSTRUCTION PROMOTERS AND NERVE TISSUE SECONDARY DEGENERATION INHIBITORS COMPRISING GINSENOSIDE RB 1?” (priority 1999, dated 2000).
# Read-outs that look alike come from different tables or passages of the source. Marks after values point to notes of the source that are not given here.
# Columns and labels:
# SH-SP rats [1] = format: in vivo; conditions: for learning disability in the water maze tests: also 1st day at the 4th week
# Experimental: (§1) First, we examined the actions of intravenous infusion of ginsenoside Rb1. For this purpose, for example, male SH-SP rats, weighing 250 - 300 g at the age of 12-13 weeks were used. The animals were bred in an air-conditioned room with a 12:12 hour light-dark cycle, and water and feeds were supplied ad libitum. The cortical branch of the left middle cerebral artery (MCA) was coagulated and cut under inhalation anesthesia.
# After MCA permanent occlusion, according to the method of the inventors of the present invention (Sakanaka and Tanaka) (Igase, K. et al., J. Cereb. Blood Flow Metab., 19, 298-306, 1999; Zhang B. et al., J. Stroke Cerebrovasc. Dis., 7, 1-9, 1998), water maze tests were performed for 4 days at the 2nd week and the 4th week, respectively, and the place navigation abilities of SH-SP rats were determined.
# (§2) Male SH-SP rats, at the age of 12-13 weeks, (stroke-prone spontaneously hypertensive rat: weighing 250 - 300 g), were used. Animals were housed in an air-conditioned room furnished with a 12:12 hour light-dark cycle, and water and feeds were supplied ad libitum. The mean blood pressure of the animals was 203±6.9 mmHg. The following experiments were conducted in accordance with the Guide for Animal Experimentation at Ehime University School of Medicine. The cortical branch of the left middle cerebral artery (MCA) of SH-SP rats were coagulated and cut, while their rectal temperature was maintained at 37±0.2°C under inhalation anesthesia.
# Immediately after MCA permanent occlusion, […] of physiological saline containing ginsenoside Rb1 at a concentration of 1µg/µl or 0.1µg/µl (60µg or 6µg as ginsenoside Rb1) was injected once into the left femoral vein. Then a catheter connected to the Alza osmotic minipump implanted subcutaneously in the back of each animal was inserted into the same vein from the point of the single injection of ginsenoside Rb1. Physiological saline containing ginsenoside Rb1 was filled in advance in the said osmotic minipump, and ginsenoside Rb1 in a dose of 60µg/day or 6µg/day was continuously infused into the blood stream through the catheter placed in the left femoral vein for 28 days. Flow rate of the ginsenoside Rb1-containing solution was 0.25µl/hour. Control animals with MCA permanent occlusion (ischemic control animals) and sham-operated animals received the same amount of physiological saline.
# After the MCA permanent occlusion according to the method of the inventors of the present invention (Sakanaka and Tanaka) (Igase, K. et al., J. Cereb. Blood Flow Metab., 19, 298-306, 1999; Zhang B. et al., J. Stroke Cerebrovasc. Dis., 7, 1-9, 1998), water maze tests were performed for 4 days at the 2nd week and the 4th week, respectively, and place navigation abilities of the SH-SP rats were determined.
# SH-SP rats [2] = test: Ratio of cerebrocortical infarction after MCA permanent occlusion, intravenous infusion; format: in vivo
# Experimental: as §1
# After the water maze tests at the 4th week, the SH-SP rats were anesthetized with chloral hydrate, and they were perfused and fixed transcardially with 0.1 mole phosphate buffer containing 4% paraformaldehyde. The brains were dissected out and cerebrocortical infarcted areas were photographed. Areas of the left cerebral hemispheres and the left cerebrocortical infarct lesions were measured on the photographs by using an image analysis device. The left cerebrocortical infarcted areas were divided by the left cerebral hemispheric areas to calculate ratios of the cerebrocortical infarction (%).
# as §2, with “anesthesia. […]” for “anesthesia.”
# After termination of the water maze tests at the 4th week, the SH-SP rats were anesthetized with chloral hydrate, and they were perfused and fixed transcardially with 0.1 mole phosphate buffer containing 4% paraformaldehyde. […] Areas of the left cerebral hemispheres and the left cerebrocortical infarct lesions were measured on the photographs by using an image analysis device. […]
# SH-SP rats [3] = test: Ratio of cerebrovascular area in the non-infarcted ischemic penumbra of the parietal lobe; format: in vivo; conditions: for ischemic side (%), ratio of the cerebrovascular area: non-infarcted ischemic penumbra; for ischemic side (%), ratio of the cerebrovascular area / intact side (%), ratio of the cerebrovascular area: mean ± SE, N = 5; for intact side (%), ratio of the cerebrovascular area: per 1.27 mm^2
# Source text: Next, we prepared paraffin sections, 5 µm thickness, obtained from brain samples at the level about 2.8 mm posterior to the bregma. Then, we measured the cerebrovascular area per 1.27 mm^2 of the non-infarcted ischemic penumbra in the parietal lobe. This was done for each of the cerebral hemisphere of a group to which ginsenoside Rb1 had been administered intravenously (i.e. the brain tissues had been rescued by administration of ginsenoside Rb1) (Fig. 5). Four sheets of differential interference contrast micrograph were used for measurement (Fig. 6), and the ratio of the cerebrovascular area was calculated (Table 1).
# The isolated brain was embedded in paraffin, and paraffin sections, 5µm thick, at the level approximately 2.8 mm posterior to bregma including the cerebrocortical infarct lesion were prepared. Then, we measured the cerebrovascular area per 1.27 mm^2 of the ischemic penumbra rescued by intravenous administration of ginsenoside Rb1. This was done for each of the cerebral hemispheres of the groups to which ginsenoside Rb1 had been administered intravenously (i.e. the brain tissues had been rescued by administering ginsenoside Rb1) (Fig. 5). Four sheets of differential interference contrast micrograph were used for measurement (Fig. 6), and the ratio of the cerebrovascular area was calculated (Table 1). The ratio of cerebrovascular area was also measured in the control hemisphere (intact side).
# Fig. 5 is a drawing showing the region for measurement of blood vessel area in the non-infarcted ischemic penumbra of the parietal lobe in a 5µm thick section of the brain. In Fig. 5, the part enclosed with a rectangle is the region for measurement of blood vessel area: cerebrocortical layers II - IV of the parietal lobe; the part painted with black in Fig. 5 is the infarct lesion when ginsenoside Rb1 was administered; and the part shown in gray in Fig. 5 is the infarcted lesion when physiological saline was administered.
# Data are represented by mean ± SE. Statistical analyses are conducted by ANOVA + Fisher's PLSD. N = 5.
# SH-SP rats [4] = test: Secondary degeneration of the thalamus: thalamic area ratio and nerve cell count in the VP thalamic nucleus; format: in vivo; conditions: mean ± SE; for ratio of area (%), left thalamic area to right thalamic area: ischemic side/intact side × 100, p < 0.05; for count of nerve cells: per 0.099 mm^2 of the ventral posterior nucleus of the thalamus, p < 0.01
# Experimental: Further, paraffin sections prepared from brain samples at the level 3.6 mm posterior to bregma were subjected to Nissl staining, and the ratio of the left thalamic area to the right thalamic area (ischemic side/intact side × 100) at the same level was measured. […] In addition, we have investigated the histological patterns of the ventral posterior nucleus of the thalamus (VP thalamic nucleus) which has reciprocal synaptic connections (fiber connections) with the ischemic core of the cerebral cortex. […] […] Data are represented as mean ± SE. Statistical analyses were conducted by Mann-Whitney U-test. In Table 2, *: p < 0.05, **: p < 0.01.
# rats [5] = conditions: rat, in vivo
# Source text: It has also been reported that no effects of intracerebroventricular administration of ginsenoside Rb1 on brain temperature, cerebral blood flow and blood pressure are observed (Lim J.-H. et al. Neurosci. Res., 28, 191-200, 1997; Zhang B. et al., J. Stroke Cerebrovasc. Dis., 7, 1-9, 1998).
# gerbils = conditions: cited from earlier work
# SH-SP) rats = conditions: cited from earlier work
# cultured nerve cells = conditions: 1 - 100 fg/ml in culture medium; cited from earlier work
# [6] = tested on: apoptosis-like nerve cell death; conditions: 1 fg/ml to 100 fg/ml; cited from earlier work
# Bcl-XL = conditions: 1 fg/ml to 100 fg/ml; cited from earlier work
# lipid peroxides = conditions: cited from earlier work
# rats [7] = conditions: rat, in vivo; cited from earlier work
# [8] = tested on: normal cultured nerve cells or neurons; conditions: cited from earlier work
# [9] = tested on: glutamate-mediated neurotoxicity; conditions: cited from earlier work
# [10] = in vivo, po; cited from earlier work
# [11] = in vivo; cited from earlier work
# [12] = 6µg/day intravenous for 28 days after MCA permanent occlusion
# [13] = 60µg/day intravenous for 28 days after MCA permanent occlusion
# Experimental for Wistar rats: We used Wistar rats, (weighing about 300 g), which were loaded with 20 g of compression to the lower thoracic cord for 20 minutes, as an animal model for spinal cord injuries. The rats were anesthetized by inhalation of halothane in a mixture of nitrous oxide and oxygen and were loaded with 20 g of compression to the lower thoracic cord for 20 minutes. More than 30 minutes later, ginsenoside Rb1 dissolved in physiological saline was infused once into the left femoral vein (12 µg or 60 µg). Subsequently continuous intravenous administration of ginsenoside Rb1 was performed for 7 days by using an Alza osmotic minipump (12µg/day or 60µg/day). Control animals' and sham-operated animals were administered with the same amount of physiological saline (vehicle). The open field locomotor scores [Basso, Bettie and Bresnakan (BBB) scores] were measured before the loading of spinal cord injury, on the day of spinal cord injury, and from the 1st day to the 7th day after spinal cord injury in order to determine an index of motor functions (Basso D.M. et al., J. Neurotrauma, 13, 343-359, 1996). […] The rats were anesthetized with inhalation of halothane in a mixture of nitrous oxide and oxygen and were loaded with 20 g of compression to the lower thoracic cord for 20 minutes. More than 30 minutes later, ginsenoside Rb1 dissolved in physiological saline was injected once into the left femoral vein (12µg or 60µg), thereafter continuous intravenous administration of ginsenoside Rb1 was performed for 7 days by using an Alza osmotic minipump (12µg/day or 60µg/day). Control animals and sham-operated animals were administered with the same amount of physiological saline (vehicle). The open field locomotor scores [Basso, Bettie and Bresnakan (BBB) scores] were measured before loading spinal cord injury, on the day of spinal cord injury and from the 1st day to the 7th day after the spinal cord injury for use as an index of motor functions (Basso D.M. et al., J. Neurotrauma, 13, 343-359, 1996).
smiles,measurement,setting,value
"CC(C)=CCC[C@](C)(O[C@@H]1O[C@H](CO[C@@H]2O[C@H](CO)[C@@H](O)[C@H](O)[C@H]2O)[C@@H](O)[C@H](O)[C@H]1O)[C@H]1CC[C@]2(C)[C@@H]1[C@H](O)C[C@@H]1[C@@]3(C)CC[C@H](O[C@@H]4O[C@H](CO)[C@@H](O)[C@H](O)[C@H]4O[C@@H]4O[C@H](CO)[C@@H](O)[C@H](O)[C@H]4O)C(C)(C)[C@@H]3CC[C@]12C [ginsenoside Rb1, Ginsenoside Rb1]",place navigation disability after MCA permanent occlusion,"SH-SP rats [1]; 6µg/day or 60µg/day intravenous, compared with physiological saline group",significantly improved
same,learning disability in the water maze tests,"SH-SP rats [1]; high dose (60µg/day), 4th day at the 2nd week, 3rd and 4th days at the 4th week",significantly ameliorated
same,learning disability in the water maze tests,"SH-SP rats [1]; low dose (6µg/day), 3rd and 4th day at the 2nd and 4th week",significantly ameliorated
same,swimming speed of SH-SP rats,"SH-SP rats [1]; rat, in vivo",No significant differences
same,ratio of cerebrocortical infarction,"SH-SP rats [2]; 6µg/day or 60µg/day intravenous for 28 days, compared with physiological saline group",significantly reduced
same,mean value of the ratio of cerebrocortical infarction compared with that of the physiological saline group,"SH-SP rats [2]; groups intravenously administered, about 50% or less",≤ 50%
same,actual volume of infarction relative to physiological saline group,"SH-SP rats [2]; intravenous administration, inferred from the area ratio",about 1/4
same,"ratios of the cerebrovascular areas, control side versus ischemic side","SH-SP rats [3]; 6µg/day and 60 µg/day intravenous, 28 days after MCA permanent occlusion",no significant difference
same,"ischemic side (%), ratio of the cerebrovascular area",SH-SP rats [3]; [12],8.0 ± 0.58%
same,"intact side (%), ratio of the cerebrovascular area",SH-SP rats [3]; [12],7.0 ± 0.64%
same,"ischemic side (%), ratio of the cerebrovascular area",SH-SP rats [3]; [13],9.0 ± 0.52%
same,"intact side (%), ratio of the cerebrovascular area",SH-SP rats [3]; [13],8.3 ± 0.92%
same,"ratio of area (%), left thalamic area to right thalamic area",SH-SP rats [4]; 6µg/day intravenous,95.9 ± 3.3* %
same,count of nerve cells,SH-SP rats [4]; 6µg/day intravenous,30.6 ± 2.9**
same,"ratio of area (%), left thalamic area to right thalamic area",SH-SP rats [4]; 60µg/day intravenous,95.3 ± 2.4* %
same,count of nerve cells,SH-SP rats [4]; 60µg/day intravenous,31.5 ± 3.6**
same,adverse effects,rats [5],No adverse effects were detected
same,motor ability (BBB scores),"Wistar rats; 12µg/day or 60µg/day intravenous, 7th day after spinal cord injuries, dose-dependent",significantly ameliorated
same,paraplegia of both hindlimbs,"Wistar rats; 60 µg/day intravenous after 20 g compression for 20 minutes, after 2 days",significantly ameliorated
same,wound healing of the dorsal skin incision,"Wistar rats; rat, in vivo",no such adverse effects were noted
same,delayed neuronal death and learning disability,gerbils; intracerebroventricular infusion starting immediately after 3 or 3.5 minutes carotid occlusion,suppresses the delayed neuronal death and learning disability
same,hippocampal CA1 pyramidal neurons rescued,gerbils; intraperitoneal 10 mg/kg/day or 20 mg/kg/day before ischemic loading,about 30%
same,delayed neuronal death and learning disability,"gerbils; intraperitoneal 10 or 20 mg/kg/day once a day for one week in advance, 5 minutes carotid occlusion",significantly prevent
same,effect of administration after the ischemic insult,"gerbils; intraperitoneal, after the ischemic insult",no effect
same,effect on cerebral infarction,SH-SP) rats; continuous intracerebroventricular infusion 0.6µg/day after MCA occlusion,significant suppressive effect
same,effect on cerebral infarction,SH-SP) rats; continuous intracerebroventricular infusion 6µg/day or 0.06µg/day after MCA permanent occlusion,no therapeutic effect
same,neuronal necrosis caused by ferrous sulfate,cultured nerve cells,reduces neuronal necrosis
same,apoptosis-like nerve cell death,[6],suppresses apoptosis-like nerve cell death
same,expression of Bcl-XL,Bcl-XL,increasing the expression
same,formation of lipid peroxides,lipid peroxides; 100 fg/ml,slightly suppressive action
same,formation of lipid peroxides,lipid peroxides; lower concentration range than 100 fg/ml,no such effect was observed
same,"brain temperature, cerebral blood flow and blood pressure",rats [7],no effects
same,normal metabolic activity of cultured nerve cells,[8],no effect on normal metabolic activity
same,SNP-induced injuries,[8]; low extracellular concentrations (1 - 100 fg/ml),protects only nerve cells against SNP-induced injuries
same,neurotoxicity,[9],increased neurotoxicity
same,glutamate-mediated neurotoxicity,[9]; high concentrations (0.11-11 µg/ml),reduce glutamate-mediated neurotoxicity
same,detection in blood,[10],can not be detected in blood
same,transfer to the central nervous system,[11],transferred rapidly
